In patent publication US20090143279A1 (priority 2007, published 2009):
Where two headings read alike, the source gives them in different places.

Tests used:
C2C12 myotubes = details: Conc 20 μM; for Viability (composite Z-score): normalized score vs mock-treated (DMSO) wells
mtOXPHOS transcripts = assay type: cell-based, mouse; details: Conc 20 μM; for mitoOX (composite Z-score): normalized score vs mock-treated (DMSO) wells
cytochrome c = assay type: cell-based, mouse; details: Conc 20 μM; for cyt c (composite Z-score): normalized score vs mock-treated (DMSO) wells
[1] = tested on: cellular dehydrogenase activity; details: Conc 20 μM; for MTT (composite Z-score): normalized score vs mock-treated (DMSO) wells
reactive oxygen species = assay type: cell-based, mouse; details: Conc 20 μM; for ROS (composite Z-score): normalized score vs mock-treated (DMSO) wells
nuOXPHOS transcripts = assay type: cell-based, mouse; details: Conc 20 μM; for nucOX (composite Z-score): normalized score vs mock-treated (DMSO) wells
[2] = tested on: mitochondrial membrane potential; assay type: cell-based, mouse; details: Conc 20 μM; for ΔΨm (composite Z-score): normalized score vs mock-treated (DMSO) wells
OXPHOS gene expression = assay type: cell-based, mouse; details: Conc 20 μM; for GE-HTS (composite Z-score): normalized score vs mock-treated (DMSO) wells
[3] = composite Z-score vs mock-treated (DMSO) wells
[4] = normalized composite Z-score vs mock-treated (DMSO) wells

Q: What does the source list for C[C@]12CCC(=O)C=C1CCc1ccc(O)cc12?
A: Viability (C2C12 myotubes; [3]): −0.592; mitoOX (mtOXPHOS transcripts; [3]): 0.846; cyt c (cytochrome c; [3]): −0.516; MTT [1, 3]: −0.984; ROS (reactive oxygen species; [3]): 0.676; nucOX (nuOXPHOS transcripts; [3]): −0.281; ΔΨm [2, 3]: −0.484; GE-HTS (OXPHOS gene expression; [3]): 0.075

Q: With COc1ccc2c(c1)C1(C)CCC(O)CC1CC2 (stereo not shown) as the compound, how does the Viability (C2C12 myotubes; composite Z-score vs DMSO) read?
A: −1.078

Q: And the mitoOX (mtOXPHOS transcripts; composite Z-score vs DMSO)?
A: −0.270

Q: What about the cyt c (cytochrome c; composite Z-score vs DMSO) of the same compound?
A: −0.087

Q: What about the MTT ([1]; composite Z-score vs DMSO) of the same compound?
A: −2.017

Q: What about the ROS (reactive oxygen species; composite Z-score vs DMSO) of the same compound?
A: 0.559

Q: What about the nucOX (nuOXPHOS transcripts; composite Z-score vs DMSO) of the same compound?
A: −0.350

Q: And the ΔΨm ([2]; composite Z-score vs DMSO)?
A: −0.840

Q: And the GE-HTS (OXPHOS gene expression; composite Z-score vs DMSO)?
A: −0.375

Q: Which Viability (C2C12 myotubes; [4]) does the source give for COc1cc2c(cc1OC)C1(O)C(=O)c3ccc(O)c(C(=O)O)c3OC1CO2 (stereo not shown) here?
A: 0.509

Q: And the mitoOX (mtOXPHOS transcripts; [4])?
A: −0.773

Q: And the cyt c (cytochrome c; [4])?
A: 0.670

Q: And the MTT [1, 4]?
A: −0.976

Q: And the ROS (reactive oxygen species; [4])?
A: −0.738

Q: What about the nucOX (nuOXPHOS transcripts; [4]) of the same compound?
A: −0.162

Q: And the ΔΨm [2, 4]?
A: −0.494

Q: And the GE-HTS (OXPHOS gene expression; [4])?
A: −0.404

Q: Which results are given for Cc1ccc2c(c1)CC[C@H]1CC(=O)CC[C@]21C?
A: Viability (C2C12 myotubes; [3]): −0.093; mitoOX (mtOXPHOS transcripts; [3]): 0.748; cyt c (cytochrome c; [3]): 0.009; MTT [1, 3]: −2.132; ROS (reactive oxygen species; [3]): 0.072; nucOX (nuOXPHOS transcripts; [3]): 0.870; ΔΨm [2, 3]: −0.470; GE-HTS (OXPHOS gene expression; [3]): 0.903

Q: For COc1cccc2c1CCC1=CC(=O)CCC12C (stereo not shown), which Viability (C2C12 myotubes; [3]) is on record?
A: −0.577

Q: And the mitoOX (mtOXPHOS transcripts; [3])?
A: −0.626

Q: What about the cyt c (cytochrome c; [3]) of the same compound?
A: −0.293

Q: And the MTT [1, 3]?
A: −1.530

Q: What about the ROS (reactive oxygen species; [3]) of the same compound?
A: 0.673

Q: And the nucOX (nuOXPHOS transcripts; [3])?
A: −0.372

Q: What about the ΔΨm [2, 3] of the same compound?
A: −0.506

Q: What about the GE-HTS (OXPHOS gene expression; [3]) of the same compound?
A: −0.465

Q: Which results are given for COc1cccc2c1CCC1CC(=O)CCC21C (stereo not shown)?
A: Viability (C2C12 myotubes; [4]): −0.060; mitoOX (mtOXPHOS transcripts; [4]): −0.612; cyt c (cytochrome c; [4]): 1.307; MTT [1, 4]: −1.068; ROS (reactive oxygen species; [4]): −0.109; nucOX (nuOXPHOS transcripts; [4]): −0.900; ΔΨm [2, 4]: 1.124; GE-HTS (OXPHOS gene expression; [4]): −0.872

Q: CC1(C)C2CC(=O)[C@]3(C)C(CC[C@@]4(C)[C@H](c5ccoc5)OC(=O)[C@H]5O[C@]543)[C@@]2(C)C(=O)C[C@H]1O (stereo partly shown) was tested. Which Viability (C2C12 myotubes; [4]) did it give?
A: −0.023

Q: And the mitoOX (mtOXPHOS transcripts; [4])?
A: −0.875

Q: And the cyt c (cytochrome c; [4])?
A: 0.113

Q: And the MTT [1, 4]?
A: −1.103

Q: What about the ROS (reactive oxygen species; [4]) of the same compound?
A: 0.122

Q: And the nucOX (nuOXPHOS transcripts; [4])?
A: −0.866

Q: What about the ΔΨm [2, 4] of the same compound?
A: −0.335

Q: What about the GE-HTS (OXPHOS gene expression; [4]) of the same compound?
A: −0.911

Q: With CCOC(=O)c1oc2c(OC)c(O)cc(O)c2c(=O)c1-c1cc(OC)c(OC)c(OC)c1 as the compound, how does the Viability (C2C12 myotubes; [3]) read?
A: −1.124

Q: What about the mitoOX (mtOXPHOS transcripts; [3]) of the same compound?
A: −1.218

Q: And the cyt c (cytochrome c; [3])?
A: −0.783

Q: What about the MTT [1, 3] of the same compound?
A: −0.761

Q: And the ROS (reactive oxygen species; [3])?
A: 0.244

Q: And the nucOX (nuOXPHOS transcripts; [3])?
A: −1.229

Q: What about the ΔΨm [2, 3] of the same compound?
A: −0.397

Q: What about the GE-HTS (OXPHOS gene expression; [3]) of the same compound?
A: −1.306

Q: What does the source list for COC1CC(C)C2OC2CC(C)C2CC(C)(C)C12 (stereo not shown)?
A: Viability (C2C12 myotubes; [4]): −1.011; mitoOX (mtOXPHOS transcripts; [4]): −0.439; cyt c (cytochrome c; [4]): 0.933; MTT [1, 4]: −0.794; ROS (reactive oxygen species; [4]): 0.120; nucOX (nuOXPHOS transcripts; [4]): −0.466; ΔΨm [2, 4]: −0.699; GE-HTS (OXPHOS gene expression; [4]): −0.497

Q: Which results are given for C=C1CCC(C2CC(=O)OC2=O)C(=O)CCC2C1CC2(C)C (stereo not shown)?
A: Viability (C2C12 myotubes; [4]): −0.749; mitoOX (mtOXPHOS transcripts; [4]): −1.046; cyt c (cytochrome c; [4]): 0.345; MTT [1, 4]: −0.968; ROS (reactive oxygen species; [4]): 0.012; nucOX (nuOXPHOS transcripts; [4]): −1.009; ΔΨm [2, 4]: −0.249; GE-HTS (OXPHOS gene expression; [4]): −1.109

Q: What does the source list for CCOc1ccc(C(=O)C2=C(O)C(OC)C(O)(OC)C=C2)cc1 (stereo not shown)?
A: Viability (composite Z-score) (C2C12 myotubes): −0.048; mitoOX (composite Z-score) (mtOXPHOS transcripts): −1.568; cyt c (composite Z-score) (cytochrome c): 0.559; MTT (composite Z-score) [1]: −1.130; ROS (composite Z-score) (reactive oxygen species): −0.264; nucOX (composite Z-score) (nuOXPHOS transcripts): −1.393; ΔΨm (composite Z-score) [2]: 0.089; GE-HTS (composite Z-score) (OXPHOS gene expression): −1.530

Q: Which “Viability (composite Z-score)” value (C2C12 myotubes) does the source give for CCOc1cc(CC(=O)c2ccc(O)c(O)c2O)ccc1O here?
A: −1.198

Q: What about the “mitoOX (composite Z-score)” value (mtOXPHOS transcripts) of the same compound?
A: 0.371

Q: What about the “cyt c (composite Z-score)” value (cytochrome c) of the same compound?
A: 0.255

Q: And the “MTT (composite Z-score)” value [1]?
A: −1.279

Q: And the “ROS (composite Z-score)” value (reactive oxygen species)?
A: 0.189

Q: What about the “nucOX (composite Z-score)” value (nuOXPHOS transcripts) of the same compound?
A: 1.496

Q: What about the “ΔΨm (composite Z-score)” value [2] of the same compound?
A: −1.362

Q: And the “GE-HTS (composite Z-score)” value (OXPHOS gene expression)?
A: 1.215

Q: How did the “Viability (composite Z-score)” value (C2C12 myotubes) turn out when CC12CCC(O)CC1CCc1ccccc12 (stereo not shown) was run?
A: 0.056

Q: What about the “mitoOX (composite Z-score)” value (mtOXPHOS transcripts) of the same compound?
A: −0.717

Q: What about the “cyt c (composite Z-score)” value (cytochrome c) of the same compound?
A: 0.790

Q: And the “MTT (composite Z-score)” value [1]?
A: −0.574

Q: And the “ROS (composite Z-score)” value (reactive oxygen species)?
A: 0.477

Q: What about the “nucOX (composite Z-score)” value (nuOXPHOS transcripts) of the same compound?
A: −0.023

Q: What about the “ΔΨm (composite Z-score)” value [2] of the same compound?
A: −0.339

Q: And the “GE-HTS (composite Z-score)” value (OXPHOS gene expression)?
A: −0.250

Q: Which results are given for CC(=O)O[C@H]1CC[C@]2(C)C3=CC(=O)[C@]4(C)[C@@H]5[C@H](C[C@H]4[C@@H]3CC[C@H]2C1)O[C@@]1(OCC(C)CC1Br)[C@H]5C (stereo partly shown)?
A: Viability (composite Z-score) (C2C12 myotubes): 0.710; mitoOX (composite Z-score) (mtOXPHOS transcripts): −0.446; cyt c (composite Z-score) (cytochrome c): 0.565; MTT (composite Z-score) [1]: −2.231; ROS (composite Z-score) (reactive oxygen species): 1.188; nucOX (composite Z-score) (nuOXPHOS transcripts): −0.585; ΔΨm (composite Z-score) [2]: −0.260; GE-HTS (composite Z-score) (OXPHOS gene expression): −0.560
